Test system: stem cell memory T cells
Assay: Proliferation of sorted stem cell memory T cells, trypan blue count
Assay type: cell-based, human
Details: 1 μM, stem cell memory T cells, 6, 9, 12 and 14 days, FIG. 18C
Excerpt: NPL 4 reports that hierarchy exists in T cells (FIG. 18A). In this Example, a fraction in which berbamine acts in T cells was verified. As a method therefor, PBMCs (CTL, Inc.) derived from a healthy subject was washed with a staining solution (PBS containing 2% FBS), and then stained with CCR7-APC (BioLegend, 353214), CD45RA-BV510 (BioLegend, 304142), CD45RO-APC-Cy7 (BioLegend, 307228), CD95-PC-Cy7 (BioLegend, 305622), CD8β-PE (Beckman, IM2217U), and CD4-BV421 (BioLegend, 317434).
After washing, the cells were resuspended in the staining solution containing PI, and by using BD AriaII Cell Sorter (BD Bioscience), in the CD8β(+) cells, CCR7(+)CD45RA(+)CD95(−)CD45RO(−) was sorted as naive T cells, CCR7(+)CD45RA(+)CD95(+)CD45RO(+) was sorted as stem cell memory T cells, CCR7(+)CD45RA(−)CD45RO(+) was sorted as central memory T cells, and CCR7(−) CD45RA(−)CD45RO(+) was sorted as effector memory T cells.
The respective cells (about 3,000 cells/well) were seeded, and berbamine (BBM) at 1 μM or MilliQ water that is a solvent for the compound as a control was added thereto, and the cells were stimulated with CD3/CD28 Dynabeads (about 9,000 beads/well). The cells were cultured using the same culture medium as in Example 6.
After 6, 9, 12, and 14 days of culturing, the number of viable cells was counted by a trypan blue method. In a statistical analysis, a Student's t-test was used (*: p<0.05).

## COc1cc2c3cc1Oc1c(OC)c(OC)cc4c1[C@@H](Cc1ccc(O)c(c1)Oc1ccc(cc1)C[C@@H]3N(C)CC2)N(C)CC4 [berbamine]
  number of viable cells compared with MilliQ water: significant enhancement of cell proliferation

— patent publication US12168781B2, “Production method for T cells or NK cells, medium for culturing T cells or NK cells, method for culturing T cells or NK cells, method for maintaining undifferentiated state of undifferentiated T cells, and growth-accelerating agent for T cells or NK cells” (KIRIN HOLDINGS KABUSHIKI KAISHA, priority 2018, dated 2024)
